Where “and” joins values, the source holds several entries; their conditions need not be identical. Equal values may be shown once.
Tests used:
[1] = human, receiving 2 grams per day (AusProtos, 2013); cited from earlier work
[2] = Strontium blood levels by Inductively Coupled Plasma Mass Spectrometry; settings: for maximum strontium blood level: 10-15 g strontium salt daily split morning and evening plus 50 g Aquamin daily as top dressing for 14 days, blood drawn in the morning before feeding, individual horses
Protocol: Approximately 4 months into the trial, strontium blood levels were measured in a small group of horses. […] (Li et al., 2009). To measure strontium blood levels, Inductively Coupled Plasma Mass Spectrometry was used (Eurofins Lab, (Wisconsin USA)).
A group of six horses were utilized and were administered the subject compositions for 14 days total. The compositions were added to morning and evening feed as a top dressing. All subjects received 50 g of “Aquamin” daily given as 25 g in morning and 25 g in evening. Three horses received Strontium ranelate at 10 g, 12 g, and 15 g daily split between the morning and evening. Three horses received Strontium citrate at 10 g, 12 g, and 14 g daily split morning and evening. Blood samples were taken a day 0, 1, 5, 8, 12, and 15 days. Bloods were drawn first thing in the morning before any supplements were fed.

Q: With `N#Cc1c(N(CC(=O)[O-])CC(=O)[O-])sc(C(=O)[O-])c1CC(=O)[O-].[Sr+2].[Sr+2]` [strontium ranelate, reference compound] as the compound, how does the strontium blood levels [1] read?
A: 140 to 150 µmol/L

Q: What about the “maximum strontium blood level” value [2] of the same compound?
A: about 7.5 μmole/L

Q: With strontium citrate as the compound, how does the “maximum strontium blood level” value [2] read?
A: 9.3 µmol/L and 9.5 µmol/L

Q: And the “strontium blood levels compared with strontium ranelate” value ([2]; six-horse 14 day study with 50 g Aquamin daily)?
A: comparable
